# Test results reported in patent US20240245647A1, “ISOMEROHYDROLASE INHIBITOR FOR TREATMENT OF ATROPHIC FORM OF AGE-RELATED MACULAR DEGENERATION AND STARGARDT DISEASE” (The Trustees of Columbia University in the City of New York, priority 2021, published 2024).
# Target: T1, RPE65 (Gallus gallus, UniProt Q9YGX2)
# T1 sequence (Q9YGX2 1-533): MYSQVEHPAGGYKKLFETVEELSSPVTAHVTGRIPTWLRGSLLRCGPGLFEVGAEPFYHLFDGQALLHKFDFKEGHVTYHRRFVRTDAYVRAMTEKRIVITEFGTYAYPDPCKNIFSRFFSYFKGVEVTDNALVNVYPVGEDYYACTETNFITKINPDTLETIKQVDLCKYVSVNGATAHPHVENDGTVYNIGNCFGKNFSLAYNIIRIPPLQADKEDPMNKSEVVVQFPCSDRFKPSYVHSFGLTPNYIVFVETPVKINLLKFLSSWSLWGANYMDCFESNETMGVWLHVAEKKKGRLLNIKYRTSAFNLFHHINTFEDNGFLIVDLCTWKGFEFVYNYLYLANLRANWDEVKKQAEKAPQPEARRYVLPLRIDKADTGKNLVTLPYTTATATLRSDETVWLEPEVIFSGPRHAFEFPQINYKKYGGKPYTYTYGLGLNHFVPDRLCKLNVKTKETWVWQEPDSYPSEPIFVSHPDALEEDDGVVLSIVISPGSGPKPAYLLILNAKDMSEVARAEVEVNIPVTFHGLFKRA
# Assay: Liposome-based isomerase assay with purified RPE65
# Type: biochemical, chicken
# Experimental: FIG. 3. Uncompetitive inhibition of RPE65 isomerase by RPE65-61. All-trans-retinyl ester incorporated in liposomes was used as a substrate for purified RPE65 in the isomerase assay. (FIG. 3A) HPLC elution profile of the reaction products without inhibitor; (FIG. 3B) with 180 nM of RPE65-61; Peak 1, retinyl esters; Peak 2, 11-cis-retinol; Peak 3, all-trans-retinol. (FIG. 3C) Lineweaver-Burk plot of 11-cis-retinol generated by RPE65. Liposomes with increasing concentrations (S) of all-trans-retinyl palmitate were incubated with 25 μg of purified chicken RPE65 in the absence (♦) or in the presence of RPE65-61 (180 nM) (▪).
# All-trans [11,12-^3H]-retinol (1 mCi/ml, 45.5 Ci/mmol, Perkin Elmer, Boston, MA) in N,N-dimethyl formamide (DMF) was used as the substrate for the isomerohydrolase assay. Bovine RPE microsomes were prepared as described previously. […] The upper layer was collected and the generated retinoids were analyzed by normal phase HPLC as described (Moiseyev, G. et al. 2003). […] The isomerohydrolase activity was calculated from the area of the 11-cis retinol peak using Radiomatic 610TR software (Perkin Elmer, Boston, MA) with synthetic 11-cis [^3H]-retinol as a standard. […] The retinoid profile after completion of the reaction was analyzed by HPLC where the peaks were identified by co-elution with retinoid standards. […]
compound,measurement,setting,value
"N=S(=O)(CCN)c1cccc(OCC2CCCCC2)c1 (racemic) [RPE65-61, (±)-(2-aminoethyl) (3-(cyclohexylmethoxy)phenyl) (imino)-λ^6-sulfanone]",mode of RPE65 inhibition,liposome-based assay with recombinant RPE65,uncompetitive inhibitor
same,Ki,"liposome-based assay, 180 nM inhibitor",150 nM
